Data set [1] concerns K562. In words: Antiproliferative activity against human K562 cells assessed as reduction in cell viability incubated for 72 hrs by IncuCyte live-cell imaging assay. Type of data set: functional, cell-based. The conditions noted are these: K562, 72 h.
Data set [2] in a line: Antiproliferative activity against human DND41 cells assessed as reduction in cell viability incubated for 72 hrs by IncuCyte live-cell imaging assay. Particulars: DND41, 72 h. Type of data set: functional, cell-based.
The test system of data set [3] is Z-138. In words: Antiproliferative activity against human Z138 cells assessed as reduction in cell viability incubated for 72 hrs by IncuCyte live-cell imaging assay. Type of data set: functional, cell-based. Particulars: Z-138, 72 h.
The subject of data set [4] is CAPAN-1. The data set can be described thus: Antiproliferative activity against human Capan1 cells assessed as reduction in cell viability incubated for 72 hrs by IncuCyte live-cell imaging assay. Type of data set: functional, cell-based. Particulars: CAPAN-1, 72 h.
Data set [5] concerns HL-60. The data set can be described thus: Antiproliferative activity against human HL60 cells assessed as reduction in cell viability incubated for 72 hrs by IncuCyte live-cell imaging assay. Type of data set: functional, cell-based. The conditions noted are these: HL-60, 72 h.
Data set [6] concerns LN-229. In words: Antiproliferative activity against human LN229 cells assessed as reduction in cell viability incubated for 72 hrs by IncuCyte live-cell imaging assay. Type of data set: functional, cell-based. Particulars: LN-229, 72 h.
The subject of data set [7] is HCT-116. In words: Antiproliferative activity against human HCT116 cells assessed as reduction in cell viability incubated for 72 hrs by IncuCyte live-cell imaging assay. Type of data set: functional, cell-based. Particulars: HCT-116, 72 h.
Data set [8] deals with NCI-H460. In words: Antiproliferative activity against human NCI-H460 cells assessed as reduction in cell viability incubated for 72 hrs by IncuCyte live-cell imaging assay. Type of data set: functional, cell-based. The conditions noted are these: NCI-H460, 72 h.
For data set [9], the system named is HEp-2. In words: Induction of DNA damage in human Hep2 cells assessed as gamma-H2AX positive cells at 10 uM after 24 hrs by DAPI staining based immunofluorescence analysis relative to control. Type of data set: functional.
Data set [10] deals with HEp-2. The data set can be described thus: Induction of DNA damage in human Hep2 cells assessed as increase in gamma-H2AX positive cells after 24 hrs by DAPI staining based immunofluorescence analysis. Type of data set: functional, cell-based.
The subject of data set [11] is HEp-2. In words: Induction of DNA damage in human Hep2 cells assessed as gamma-H2AX positive cells at 1 uM after 24 hrs by DAPI staining based immunofluorescence analysis relative to control. Type of data set: functional.
Data set [12] has as its target Tubulin (Homo sapiens) (UniProt P68371+Q9H4B7+P0DPH7+P68366+Q13509+Q71U36+P04350+Q3ZCM7+P07437+P68363+Q9BQE3+Q6PEY2+Q13885+Q9BVA1+Q9BUF5). In words: Inhibition of tubulin polymerization in human Hep2 cells at 100 uM after 3 hrs by DAPI-staining based fluorescence microscopic assay. Type of data set: cell-based. The conditions noted are these: HEp-2.
Data set [13] deals with HEp-2. The data set can be described thus: Induction of DNA damage in human Hep2 cells assessed as gamma-H2AX positive cells at 100 uM after 24 hrs by DAPI staining based immunofluorescence analysis (reference value: 0.51%). Type of data set: functional.
Data set [14] deals with PBMC. In words: Induction of apoptosis in human PBMC assessed as caspase 3/7 activation at 0.0064 to 100 uM incubated for 72 hrs and measured at 3 hrs interval by IncuCyte Caspase 3/7 Green reagent based assay. Type of data set: cell-based.
Data set [15] concerns Salmon testes DNA. In words: Binding affinity to salmon sperm DNA assessed as DNA intercalation at 20 uM incubated for 20 mins by acridine orange orange dye based fluorescence polarization assay. Type of data set: nucleic-acid assay. The conditions noted are these: Salmonidae.
The test system of data set [16] is CAPAN-1. In words: Induction of apoptosis in human Capan1 cells assessed as increase in apoptotic cells incubated for 72 hrs and measured at 3 hrs interval by IncuCyte Caspase 3/7 Green reagent based assay. Type of data set: functional, cell-based.

Active and inactive are the calls of the source. The rule behind the calls is not given here.

Turning to `Nc1ncnn2c([C@@H]3O[C@H](CO)[C@@H](O)[C@H]3O)cc(-c3ccc(Cl)cc3)c12`, the IC50 in data set [1] is 47.8 µM; in data set [2], 35.1 µM; in data set [3], 40.2 µM; in data set [4], 56.7 µM; in [5], 37.9 µM; in data set [6], 32.6 µM. The 50% inhibitory concentration (IC50) came to 59.3 µM in data set [7] and 45.9 µM in [8].
Consider `Nc1ncnn2c([C@@H]3O[C@H](CO)[C@@H](O)[C@H]3O)cc(-c3ccsc3)c12`, for which the half-maximal inhibitory concentration (IC50) in data set [1] amounted to 66.4 µM; in [2], 85.4 µM; in [3], 43.5 µM; in [4], 56.2 µM; in [5], 37.3 µM; in [6], 57.7 µM. The IC50 in data set [7] is 45.2 µM; in [8] it was 35.6 µM.
With `Nc1ncnn2c([C@@H]3O[C@H](CO)[C@@H](O)[C@H]3O)cc(/C=C/c3ccccc3)c12`, the Activity is 0% in data set [9]; “Dose-dependent effect” in data set [10]; 0.05% in [11]; 0.22% in data set [13]; “Non-Toxic” in data set [14]. Besides, the half-maximal inhibitory concentration (IC50) in data set [1] was found to be 3.1 µM; in [2] it was 1.7 µM; in data set [3], 1.3 µM; in data set [4], 2.6 µM; in data set [5], 2 µM; in [6], 3.9 µM. In addition, the results for the IC50 in data set [7] and in data set [8] were 4.8 µM and 3.7 µM, respectively. Also, the inhibition entry in data set [12] was “Active”. Further, the result in [15] was Active.
Consider `CCCCC#Cc1cc([C@@H]2O[C@H](CO)[C@@H](O)[C@H]2O)n2ncnc(N)c12`, for which the Activity in data set [9] was 0.35%; in data set [10], “Dose-dependent effect”; in data set [11], 0.31%; in data set [13], 1.57%; in data set [14], “Non-Toxic”. Further, the IC50 in data set [1] is 2.4 µM; in data set [2], 0.4 µM; in data set [3], 0.2 µM; in [4], 1 µM; in data set [5], 0.4 µM; in [6] it was 1 µM. Also, the IC50 in data set [7] is 2.9 µM; in data set [8], 1.7 µM. Moreover, the result in data set [16] and in data set [15] was Active. Also, the inhibition result in [12] is “Active”.
Consider `Nc1ncnn2c([C@@H]3O[C@H](CO)[C@@H](O)[C@H]3O)cc(-c3ccccc3Cl)c12`, for which the half-maximal inhibitory concentration (IC50) in [1] was above 100 µM; in data set [2], 78.5 µM; in data set [3] it was 76.1 µM; in [4], 54.9 µM; in data set [5], above 100 µM; in [6] it was above 100 µM. Besides, the IC50 in data set [7] and in data set [8] was above 100 µM each time.
Turning to `Nc1ncnn2c([C@@H]3O[C@H](CO)[C@@H](O)[C@H]3O)cc(-c3ccoc3)c12`, the Activity in [9] was 1.54%; in data set [10] it was “Dose-dependent effect”; in data set [11], 0.13%; in [13] it was 3.74%; in [14] it was “Non-Toxic”. Moreover, the IC50 in data set [1] was found to be 2.1 µM; in data set [2], 0.1 µM; in [3], 0.3 µM; in data set [4] it was 0.9 µM; in data set [5] it was 0.5 µM; in [6], 1 µM. The figures for the IC50 in [7] and in data set [8] were 1.4 µM and 1.5 µM, respectively. The outcome in [16] and in data set [15] was Active. In addition, the inhibition result in data set [12] was “Active”.
Take `Nc1ncnn2c([C@@H]3O[C@H](CO)[C@@H](O)[C@H]3O)cc(-c3ccc(F)cc3F)c12`: the 50% inhibitory concentration (IC50) came out at 69.7 µM in data set [1]; 68.2 µM in [2]; 59.1 µM in data set [3]; 50.9 µM in data set [4]; 99.3 µM in data set [5]; 43.5 µM in data set [6]. Also, the IC50 in data set [7] is 59.5 µM; in data set [8], 93.3 µM.
On to `Nc1ncnn2c([C@@H]3O[C@H](CO)[C@@H](O)[C@H]3O)cc(-c3ccccc3F)c12`, for which the IC50 was above 100 µM in data set [1]; above 100 µM in data set [2]; 95.3 µM in [3]; above 100 µM in data set [4]; above 100 µM in data set [5]; above 100 µM in data set [6]. Further, the IC50 in [7] and in [8] was above 100 µM throughout.
For `COc1ccc(-c2cc([C@@H]3O[C@H](CO)[C@@H](O)[C@H]3O)n3ncnc(N)c23)cc1`, the IC50 is 76.4 µM in data set [1]; 41.7 µM in data set [2]; 62.6 µM in data set [3]; 43.9 µM in data set [4]; above 100 µM in data set [5]; 40.3 µM in data set [6]. The results for the IC50 in data set [7] and in [8] were 47.1 µM and 69.3 µM, respectively.
As for `COc1cc([C@@H]2c3cc4c(cc3[C@@H](O[C@@H]3O[C@@H]5CO[C@@H](C)O[C@H]5[C@H](O)[C@H]3O)[C@H]3COC(=O)[C@H]23)OCO4)cc(OC)c1O` [ETOPOSIDE], the Activity in data set [9] stood at 89.89%; in data set [11], 1.66%; in [13], 89.31%.
Consider `Nc1ncnn2c([C@@H]3O[C@H](CO)[C@@H](O)[C@H]3O)cc(C#Cc3ccccc3)c12`, for which the IC50 was above 100 µM in [1]; 62.6 µM in [2]; 41.4 µM in data set [3]; 37.7 µM in data set [4]; above 100 µM in data set [5]; 88 µM in [6]. The results for the concentration for half-maximal inhibition (IC50) in data set [7] and in [8] were 46.9 µM and 38.5 µM, respectively.
Regarding `Nc1ncnn2c([C@@H]3O[C@H](CO)[C@@H](O)[C@H]3O)cc(-c3ccccc3)c12`, the IC50 was above 100 µM in data set [1]; above 100 µM in data set [2]; above 100 µM in data set [3]; 65.2 µM in [4]; above 100 µM in data set [5]; 75.1 µM in data set [6]. The IC50 in data set [7] was 82.6 µM; in data set [8], above 100 µM.
As for `Nc1ncnn2c([C@@H]3O[C@H](CO)[C@@H](O)[C@H]3O)cc(-c3ccc(F)cc3)c12`, the IC50 in data set [1] was above 100 µM; in data set [2], 39.3 µM; in data set [3], above 100 µM; in [4], 65.6 µM; in [5] it was 68.3 µM; in data set [6], 65.6 µM. The half-inhibitory concentration (IC50) in data set [7] was 42.5 µM; in [8] it was 55.5 µM.
`Cc1ccccc1-c1cc([C@@H]2O[C@H](CO)[C@@H](O)[C@H]2O)n2ncnc(N)c12`: the IC50 in data set [1] is above 100 µM; in [2], 94.1 µM; in [3], 66 µM; in data set [4] it was 97.5 µM; in data set [5] it was 48.4 µM; in data set [6], above 100 µM. The IC50 in [7] and in [8] was above 100 µM throughout.
Regarding `Nc1ncnn2c([C@@H]3O[C@H](CO)[C@@H](O)[C@H]3O)cc(C#Cc3ccc(F)cc3)c12`, the IC50 in [1] is above 100 µM; in data set [2], above 100 µM; in [3] it was 89 µM; in [4] it was 55.4 µM; in data set [5], above 100 µM; in [6], above 100 µM. In addition, the IC50 in data set [7] is above 100 µM; in data set [8], 79.4 µM.
Consider `CC(=O)O[C@@]12CO[C@@H]1C[C@H](O)[C@@]1(C)C(=O)[C@H](O)C3=C(C)[C@@H](OC(=O)[C@H](O)[C@@H](NC(=O)OC(C)(C)C)c4ccccc4)C[C@@](O)([C@@H](OC(=O)c4ccccc4)[C@H]21)C3(C)C` [DOCETAXEL ANHYDROUS], for which the IC50 in data set [1] worked out at 0.009 µM; in data set [2] it was 0.005 µM; in data set [3] it was 0.004 µM; in data set [4], 0.025 µM; in data set [5], 0.05 µM; in data set [6], 0.002 µM. For the same compound, the IC50 in [7] is 0.007 µM; in data set [8], 0.004 µM.
As for `CN[C@@H]1C[C@H]2O[C@@](C)([C@@H]1OC)n1c3ccccc3c3c4c(c5c6ccccc6n2c5c31)C(=O)NC4` [STAUROSPORINE], the IC50 in data set [1] came to 0.04 µM; in data set [5], 0.04 µM; in data set [7], 0.04 µM; in data set [8] it was 0.06 µM.
Turning to `Nc1ncnn2c([C@@H]3O[C@H](CO)[C@@H](O)[C@H]3O)cc(C#Cc3cccs3)c12`, the IC50 in data set [1] was above 100 µM; in [2], 33.4 µM; in data set [3] it was 50.1 µM; in [4] it was 32 µM; in data set [5], above 100 µM; in [6], above 100 µM. The IC50 in data set [7] was found to be 65.5 µM; in data set [8], 26.6 µM.

The values above are taken from ChEMBL document CHEMBL4622990, “Synthesis and Antitumor Activity of C-7-Alkynylated and Arylated Pyrrolotriazine C-Ribonucleosides” (ACS Med Chem Lett, 2020).
